Experimental data as given in ChEMBL document CHEMBL1201862, “PubChem BioAssay data set” (2004).
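Compound exposure: 48 hours, 5 concentrations, 96-well plates. GI50 marks 50% less growth.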 Calls of active or inactive are those of the source. Rule as the data show it: active = GI50 up to about 1.1 µM and inactive = higher.

Tests used:
Experiment in all cases: NCI tumour cell line growth inhibition, 48 h
SK-OV-3 = tested on: SK-OV-3
SF-295 = tested on: SF-295
SF-268 = tested on: SF-268
NCI-H23 = tested on: NCI-H23
COLO 205 = tested on: COLO 205
NCI-H522 = tested on: NCI-H522
HL-60 = tested on: HL-60
HCT-15 = tested on: HCT-15
RXF 393 = tested on: RXF 393
KM-20L2 = tested on: KM-20L2
Malme-3M = tested on: Malme-3M
EKVX = tested on: EKVX
SK-MEL-2 = tested on: SK-MEL-2
M14 = tested on: M14
M19-MEL = tested on: M19-MEL
HT-29 = tested on: HT-29
786-0 = tested on: 786-0
UACC-257 = tested on: UACC-257
UACC-62 = tested on: UACC-62
KM12 = tested on: KM12
HOP-92 = tested on: HOP-92
IGROV-1 = tested on: IGROV-1
SW-620 = tested on: SW-620
SNB-75 = tested on: SNB-75
XF498 = tested on: XF498
A549 = tested on: A549
SN12C = tested on: SN12C
RPMI-8226 = tested on: RPMI-8226
HCC 2998 = tested on: HCC 2998
SNB-19 = tested on: SNB-19
SNB-78 = tested on: SNB-78
OVCAR-5 = tested on: OVCAR-5
OVCAR-3 = tested on: OVCAR-3
DMS-273 = tested on: DMS-273
UO-31 = tested on: UO-31
K562 = tested on: K562
LOX IMVI = tested on: LOX IMVI
OVCAR-4 = tested on: OVCAR-4
DLD-1 = tested on: DLD-1
MOLT-4 = tested on: MOLT-4
LXFL 529 = tested on: LXFL 529
CAKI-1 = tested on: CAKI-1
SK-MEL-28 = tested on: SK-MEL-28
ACHN = tested on: ACHN
DMS-114 = tested on: DMS-114
OVCAR-8 = tested on: OVCAR-8
NCI-H460 = tested on: NCI-H460
TK-10 = tested on: TK-10
CCRF-CEM = tested on: CCRF-CEM
SK-MEL-5 = tested on: SK-MEL-5
HOP-62 = tested on: HOP-62
NCI-H226 = tested on: NCI-H226
SF-539 = tested on: SF-539
SR = tested on: SR
U-251 = tested on: U-251
A498 = tested on: A498
HCT-116 = tested on: HCT-116
NCI/ADR-RES = tested on: NCI/ADR-RES
Hs-578T = tested on: Hs-578T
MCF7 = tested on: MCF7
BT-549 = tested on: BT-549
T47D = tested on: T47D
PC-3 = tested on: PC-3
MDA-MB-231 = tested on: MDA-MB-231
DU-145 = tested on: DU-145
MDA-MB-435 = tested on: MDA-MB-435
MDA-N = tested on: MDA-N

`c1ccc(CNn2nnc3ccccc32)cc1` was tested, and the GI50 (SK-OV-3) was > 100 µM (inactive), the GI50 (SF-295) was > 100 µM (inactive) and the GI50 (SF-268) was > 100 µM (inactive). For the same compound, the GI50 (NCI-H23) was > 100 µM (inactive), the GI50 (COLO 205) was > 100 µM (inactive) and the GI50 (NCI-H522) was > 100 µM (inactive). The GI50 (HL-60) was > 100 µM (inactive), the GI50 (HCT-15) was > 100 µM and the GI50 (RXF 393) was > 100 µM (inactive). For the same compound, the GI50 (KM-20L2) was > 100 µM (inactive), the GI50 (Malme-3M) was > 100 µM (inactive) and the GI50 (EKVX) was > 100 µM (inactive). For the same compound, the GI50 (SK-MEL-2) was > 100 µM (inactive), the GI50 (M14) was > 100 µM (inactive) and the GI50 (M19-MEL) was > 100 µM (inactive). For the same compound, the GI50 (HT-29) was > 100 µM (inactive), the GI50 (786-0) was > 100 µM (inactive) and the GI50 (UACC-257) was > 100 µM (inactive). For the same compound, the GI50 (UACC-62) was > 100 µM (inactive), the GI50 (KM12) was > 100 µM (inactive) and the GI50 (HOP-92) was > 100 µM (inactive). For the same compound, the GI50 (IGROV-1) was > 100 µM (inactive), the GI50 (SW-620) was > 100 µM (inactive) and the GI50 (SNB-75) was > 100 µM (inactive). For the same compound, the GI50 (XF498) was > 100 µM (inactive), the GI50 (A549) was > 100 µM (inactive) and the GI50 (SN12C) was > 100 µM (inactive). For the same compound, the GI50 (RPMI-8226) was > 100 µM (inactive), the GI50 (HCC 2998) was > 100 µM (inactive) and the GI50 (SNB-19) was > 100 µM (inactive). For the same compound, the GI50 (SNB-78) was > 100 µM (inactive), the GI50 (OVCAR-5) was > 100 µM (inactive) and the GI50 (OVCAR-3) was > 100 µM (inactive). For the same compound, the GI50 (DMS-273) was > 100 µM (inactive), the GI50 (UO-31) was > 100 µM (inactive) and the GI50 (K562) was > 100 µM (inactive). For the same compound, the GI50 (LOX IMVI) was > 100 µM (inactive), the GI50 (OVCAR-4) was > 100 µM (inactive) and the GI50 (DLD-1) was > 100 µM (inactive). For the same compound, the GI50 (MOLT-4) was > 100 µM (inactive), the GI50 (LXFL 529) was > 100 µM (inactive) and the GI50 (CAKI-1) was > 100 µM (inactive). For the same compound, the GI50 (SK-MEL-28) was > 100 µM (inactive), the GI50 (ACHN) was > 100 µM (inactive) and the GI50 (DMS-114) was > 100 µM (inactive). For the same compound, the GI50 (OVCAR-8) was > 100 µM (inactive), the GI50 (NCI-H460) was > 100 µM (inactive) and the GI50 (TK-10) was > 100 µM (inactive). For the same compound, the GI50 (CCRF-CEM) was > 100 µM (inactive), the GI50 (SK-MEL-5) was > 100 µM (inactive) and the GI50 (HOP-62) was > 100 µM (inactive).

In the case of `Cc1ccc(NC(=O)CC2C(=O)Nc3ccccc3[S+]2[O-])cc1C` (configuration not stated), the GI50 (SF-295) is reported as > 100 µM (inactive), the GI50 (SF-268) is reported as 75.2 µM (inactive) and the GI50 (NCI-H23) is reported as 63.5 µM (inactive). The GI50 (NCI-H522) was 32.1 µM (inactive), the GI50 (HL-60) was 41.7 µM (inactive) and the GI50 (HCT-15) was > 100 µM. The GI50 (RXF 393) was 22 µM (inactive), the GI50 (KM-20L2) was > 100 µM (inactive) and the GI50 (Malme-3M) was > 100 µM (inactive). For the same compound, the GI50 (EKVX) was > 100 µM (inactive), the GI50 (SK-MEL-2) was > 100 µM (inactive) and the GI50 (M14) was > 100 µM (inactive). For the same compound, the GI50 (M19-MEL) was > 100 µM (inactive), the GI50 (NCI-H226) was > 100 µM (inactive) and the GI50 (HT-29) was > 100 µM (inactive). The GI50 (786-0) was 24.8 µM (inactive), the GI50 (UACC-257) was > 100 µM (inactive) and the GI50 (UACC-62) was > 100 µM (inactive). For the same compound, the GI50 (HOP-92) was 26 µM (inactive), the GI50 (SF-539) was 23.7 µM (inactive) and the GI50 (SR) was 63.5 µM (inactive). For the same compound, the GI50 (IGROV-1) was > 100 µM (inactive), the GI50 (SW-620) was 66.4 µM (inactive) and the GI50 (SNB-75) was > 100 µM (inactive). For the same compound, the GI50 (XF498) was > 100 µM (inactive), the GI50 (A549) was > 100 µM (inactive) and the GI50 (SN12C) was > 100 µM (inactive). The GI50 (RPMI-8226) was 29 µM (inactive), the GI50 (HCC 2998) was > 100 µM (inactive) and the GI50 (SNB-19) was 46 µM (inactive). The GI50 (SNB-78) was > 100 µM (inactive), the GI50 (U-251) was 44.3 µM (inactive) and the GI50 (OVCAR-5) was > 100 µM (inactive). The GI50 (OVCAR-3) was 40.6 µM (inactive), the GI50 (DMS-273) was 28.1 µM (inactive) and the GI50 (UO-31) was 42.1 µM (inactive). For the same compound, the GI50 (K562) was 91.8 µM (inactive), the GI50 (LOX IMVI) was 48.6 µM (inactive) and the GI50 (OVCAR-4) was 16.4 µM (inactive). The GI50 (DLD-1) was > 100 µM (inactive), the GI50 (MOLT-4) was 25.5 µM (inactive) and the GI50 (LXFL 529) was 88.3 µM (inactive). The GI50 (A498) was > 100 µM (inactive), the GI50 (CAKI-1) was > 100 µM (inactive) and the GI50 (SK-MEL-28) was > 100 µM (inactive). The GI50 (ACHN) was 73.8 µM (inactive), the GI50 (DMS-114) was 48.1 µM (inactive) and the GI50 (OVCAR-8) was 34 µM (inactive). The GI50 (NCI-H460) was > 100 µM (inactive), the GI50 (TK-10) was > 100 µM (inactive) and the GI50 (CCRF-CEM) was > 100 µM (inactive). For the same compound, the GI50 (HCT-116) was 49.2 µM (inactive) and the GI50 (SK-MEL-5) was 73.8 µM (inactive).

In the case of `C[C@@](O)(/C=C/[C@H]1CC=CC(=O)O1)[C@@H](C[C@@H](O)\C=C/C=C\C=C\CO)OP(=O)(O)O` [FOSTRIECIN SODIUM], the GI50 (SK-OV-3) is reported as 10.2 µM (inactive), the GI50 (SF-295) is reported as 3.94 µM (inactive) and the GI50 (NCI/ADR-RES) is reported as 12.8 µM (inactive). The GI50 (Hs-578T) was 5.51 µM (inactive), the GI50 (SF-268) was 16.4 µM (inactive) and the GI50 (NCI-H23) was 10.2 µM (inactive). For the same compound, the GI50 (COLO 205) was 3.08 µM (inactive), the GI50 (NCI-H522) was 17.3 µM (inactive) and the GI50 (HL-60) was 1.1 µM (active). For the same compound, the GI50 (HCT-15) was 5.74 µM, the GI50 (RXF 393) was 4.11 µM (inactive) and the GI50 (KM-20L2) was 1.03 µM (active). The GI50 (Malme-3M) was 4.74 µM (inactive), the GI50 (EKVX) was 16.5 µM (inactive) and the GI50 (SK-MEL-2) was 11.2 µM (inactive). The GI50 (M14) was 0.634 µM (active), the GI50 (M19-MEL) was 4.17 µM (inactive) and the GI50 (NCI-H226) was 7.4 µM (inactive). For the same compound, the GI50 (HT-29) was 1.75 µM (inactive), the GI50 (786-0) was 5.36 µM (inactive) and the GI50 (UACC-257) was 4.94 µM (inactive). The GI50 (UACC-62) was 3.77 µM (inactive), the GI50 (KM12) was 6.08 µM (inactive) and the GI50 (HOP-92) was 2.27 µM (inactive). The GI50 (SF-539) was 7.23 µM (inactive), the GI50 (SR) was 3.99 µM (inactive) and the GI50 (IGROV-1) was 5.14 µM (inactive). For the same compound, the GI50 (SW-620) was 9.29 µM (inactive), the GI50 (XF498) was 52.5 µM (inactive) and the GI50 (A549) was 9.66 µM (inactive). The GI50 (SN12C) was 9.33 µM (inactive), the GI50 (RPMI-8226) was 1.1 µM (active) and the GI50 (HCC 2998) was 4.28 µM (inactive). For the same compound, the GI50 (SNB-19) was 32.3 µM (inactive), the GI50 (SNB-78) was 15 µM (inactive) and the GI50 (U-251) was 17.1 µM (inactive). The GI50 (OVCAR-5) was 6.31 µM (inactive), the GI50 (MCF7) was 2.97 µM (inactive) and the GI50 (DMS-273) was 6.19 µM (inactive). The GI50 (UO-31) was 11 µM (inactive), the GI50 (K562) was 1.6 µM (inactive) and the GI50 (BT-549) was 9.59 µM (inactive). For the same compound, the GI50 (LOX IMVI) was 2.16 µM (inactive), the GI50 (OVCAR-4) was 5.27 µM (inactive) and the GI50 (T47D) was 48.1 µM (inactive). For the same compound, the GI50 (DLD-1) was 13.2 µM (inactive), the GI50 (PC-3) was 4.48 µM (inactive) and the GI50 (A498) was 23.9 µM (inactive). For the same compound, the GI50 (CAKI-1) was 1.81 µM (inactive), the GI50 (SK-MEL-28) was 7.28 µM (inactive) and the GI50 (ACHN) was 4.51 µM (inactive). The GI50 (DMS-114) was 13 µM (inactive), the GI50 (OVCAR-8) was 9.48 µM (inactive) and the GI50 (NCI-H460) was 10.4 µM (inactive). The GI50 (MDA-MB-231) was 22.3 µM (inactive), the GI50 (TK-10) was 12.8 µM (inactive) and the GI50 (DU-145) was 3.21 µM (inactive). The GI50 (CCRF-CEM) was 2.12 µM (inactive), the GI50 (HCT-116) was 3.26 µM (inactive) and the GI50 (MDA-MB-435) was 1.28 µM (inactive). The GI50 (MDA-N) was 0.828 µM (active), the GI50 (SK-MEL-5) was 4.67 µM (inactive) and the GI50 (HOP-62) was 4.9 µM (inactive).
